Marks after values point to notes of the source that are not given here.
Legend:
baseline motility = test: Baseline motility in mice (vehicle-pretreated, vehicle-challenged); assay type: in vivo, mouse; conditions: s.c., Std. Dev. in brackets
Procedure: Subjects. Male NMRI mice (Charles River) weighing approx. 35 g are used. […] 12 mice are used pr experimental group.
Experimental procedure. All mice are pre-treated once daily for five days with either d-amphetamine sulphate (2.5 mg/kg s.c.) or saline (10 ml/kg). For the 17 days between the last day of pre-treatment and the test day, the animals are kept in their homecage receiving the care as described above. The experiment is performed under normal light conditions in an undisturbed room. The mice are treated with test substance or vehicle and placed individually in the test cages for 30 min. The mice are then challenged with D-amphetamine sulphate (1.25 mg/kg s.c.) or saline (5 ml/kg) and replaced in the test-cage and data acquisition is begun. 5×8 infrared light sources and photocells interspaced by 4 cm monitor the locomotor activity. The light beams cross the cage 1.8 cm above the bottom of the cage.
Administration of compounds.
Data analyses. […] Similarly an ED50 for inhibiting baseline motility is calculated by expressed the motility response in vehicle-pretreated, vehicle-challenged, drug-treated animals relative to the baseline motility response. A therapeutic index value is subsequently calculated by dividing the first ED50 by the second.

[1] = system: immobility in the mouse forced swim test; test: Mouse forced swim test; assay type: in vivo; conditions: mice, time immobile during last 3 min of 6 min swim, vehicle = 100
Procedure: Subjects. Male NMRI mice (Charles River) weighing 23-25 g are used. […] 8 mice are used pr experimental group.
Experimental procedure. The mice are placed in 2000 ml beaker containing 1200 ml of tempered water (25° C.) and left to swim for 6 min. The performance of the mice is videorecorded, digitalized and analysed by means of a digital analysis system (Bioobserve). The time spent immobile for the last 3 min. of the test session is quantified for each mouse.
Analyses. […] A post-hoc test (Student-Newman-Keuls) is employed when appropriate. P-levels <0.05 were considered significant.

[2] = system: d-amphetamine induced hyperactivity in rats; test: Amphetamine-induced hyperactivity in the rat (amphetamine antagonism); assay type: in vivo; conditions: read-out: Amphetamine antagonism ED50 (mg/kg) ± std. dev.
From the text: Subjects. Male Wistar rats (Taconic, Denmark) weighing 170-240 g are used. […] Eight rats are used at each dose level and in the parallel control group receiving the vehicle to the test compound plus d-amphetamine and the group receiving vehicle injections only.

[3] = system: dopaminergic neurons in the ventral tegmental area; test: Spontaneous DA cell firing in the VTA of anaesthetised rats (extracellular single-cell recordings); conditions: mean ± SEM
Procedure: Subjects. Male Wistar rats (Harlan, The Netherlands) weighing 270-340 g are used. The animals are housed under a 12-hr light/dark cycle under controlled conditions for regular in-door temperature (21±2° C.) and humidity (55±5%) with food and tap water available ad libitum.
Administration of compound. […] These i.v. doses match the s.c. dose range of 0-10 mg/kg.
Statistical analysis. Drug effects are assessed by statistical comparison of the mean firing rate calculated from the 2-3 min period immediately before the first drug administration (baseline) to the mean firing rate calculated from at least 60 s at the maximal drug effect. Data are analysed statistically by a one-way analysis of variance (ANOVA) followed by Student-Newman-Keuls post hoc test. A p-value less than 0.05 is considered significant.

[4] = system: extracellular DA levels in the nucleus accumbens; test: Microdialysis: amphetamine-evoked DA levels in the nucleus accumbens of freely moving rats; assay type: in vivo, rat; conditions: for Normalised DA level in the nucleus accumbens: compound 5 mg/kg s.c., D-amphetamine 0.5 mg/kg s.c. 30 min later; for Effect on the basal extracellular DA level in the nucleus accumbens: without amphetamine, data not shown
Procedure: Subjects. Male Sprague-Dawley rats (Charles River), initially weighing 275-300 g, are used.
Surgery. Animals are anaesthetized with hypnorm/dormicum (2 ml/kg s.c.) and intracerebral guide cannulas (CMA/12) are stereotaxically implanted, positioning the dialysis probe tip in the nucleus accumbens (co-ordinates: 1.7 mm anterior to bregma, −1.2 mm lateral to bregma, 8.0 mm ventral to the dura). Anchor screws and acrylic cement is applied for fixation of the guide cannula. The body temperature of the animals is maintained at 37° C. by means of a rectal probe and a heating plate. The rats are allowed to recover from surgery for 2 days, housed singly in cages.
Experimental procedure. On the day of the experiment, a microdialysis probe (CMA/12, 0.5 mm diameter, 2 mm length) is inserted through the guide cannula of the conscious animal. The probes are connected to a microinjection pump via a dual channel swivel which allowed the animals unrestricted movements. Perfusion of the microdialysis probe with filtered Ringer solution (145 mM NaCl, 3 mM KCl, 1 mM MgCl2, 1.2 mM CaCl2) is maintained for the duration of the experiment at a constant flow rate of 1 μL/min. After 180 min of stabilisation, the experiments are initiated. Dialysates are collected every 20 min. After the experiments the rats are sacrificed by decapitation, their brains removed, frozen and sliced for probe placement verification.
Administration of compounds. […] Thirty minutes later, D-amphetamine sulphate (0.5 mg/kg s.c.) is administered.
Analysis of dialysate. The concentration of DA in the dialysates is assessed by means of HPLC with electrochemical detection. The dialysate constituents are separated by reverse phase liquid chromatography (ODS 150×3 mm, […]). Mobile phase consists of 90 mM NaH2PO4, 50 mM sodium citrate, 367 mg/l sodium 1-octanesulfonic acid, 50 μM EDTA and 8% acetonitrile (pH 4.0) at a flow rate of 0.5 ml/min. Electrochemical detection of DA is accomplished using a coulometric detector; potential set at E1=−75 mV and E2=300 mV (guard cell at 350 mV) (Coulochem II, ESA). The dialysate levels of DA in the three dialyse samples preceding the administration of compound are averaged and used as baseline level of DA (100%)
Statistical analysis. The dialysate levels of DA in the three dialyse samples preceding the administration of compound are averaged and used as baseline level of DA (100%). Data are analysed using repeated measure analyses of variance followed by post hoc tests (Tukey test), when appropriate. *P<0.05 were considered significant.

[5] = system: conditioned avoidance response; test: Conditioned avoidance response in rats; assay type: in vivo, rat; conditions: Rattus norvegicus, sc, rats, read-out: % inhibition of avoidance (Std. dev.) Relative to baseline; for inhibition at 2.5 mg/kg: 2.5 mg/kg s.c. 30 min before the test; for inhibition at 5 mg/kg: 5 mg/kg s.c. 30 min before the test
Procedure: Subjects. Male Wistar rats (Taconic, Denmark) weighing 150 g at the beginning of the study are used. The rats are housed in pairs and maintained on a 12 h light/dark cycle (lights on 06:00). The animals are fed once daily (approx. 6 pellets/rat) in order to keep the rats at 80% of their free-feeding weight. Water is available ad libitum. Temperature (21±1° C.) and relative humidity (55±5%) are automatically controlled.
Experimental procedure. Conditioned avoidance testing is conducted using four automated shuttle-boxes (ENV-010M, MED-Associates) each placed in a sound-attenuated chamber. Each box is divided into two compartments by a partition with an opening. The position of the animal and crossings from one compartment to the other are detected by two photocells placed on either side of the dividing wall. Upon presentation of the conditioned stimuli (CS), tone and light, the animals have 10s to cross to the other compartment of the shuttle-box in order to turn the CS off (end the trial) and avoid the appearance of the unconditioned stimulus (UCS). If the rat remains in the same compartment for more than 10s, the UCS is presented as 0.5 mA scrambled foot-shocks until escape is performed or 10s in maximal duration. The following behavioural variables are evaluated: avoidance (response to CS within 10s); escape (reponse to CS+UCS); escape failures (failure to respond); intertrial crosses and locomotor activity. The rats are habituated to the shuttle-box 3 min before each test session. During training each test session consists of 30 trials with intertrial intervals varying randomly between 20s and 30s. Training is carried out until the rats display an avoidance of 80% or more, on 3 consecutive days. A test is preceded by a pre-test the day before giving rise to a baseline value for each animal, thus the animals serve as their own control. Seven to eight rats are used at each dose level. A parallel control group receiving the vehicle of the test compound is also included.
Administration of compound. […] All compounds are dissolved in a vehicle of 10% 2-hydroxy-propyl-beta-cyclodextrin (isotonic with glucose, pH 5-7).
Statistical analyses. The effects of compounds on avoidance and escape failure behaviours are statistically evaluated by means of two-way repeated measures ANOVA followed by post hoc comparisons (Student-Newman-Keuls Method) when appropriate. P-levels <0.05 are considered statistically significant.

[6] = 2.5 mg/kg s.c. 30 min before test
[7] = 5.0 mg/kg s.c. 30 min before test

Compound	Immobility in % (±S.D.) ([1]; 1.3 mg/kg)	Spontaneous DA cell firing rate in the VTA ([3]; cumulated dose 0.03 mg/kg i.v.)	Spontaneous DA cell firing rate in the VTA ([3]; cumulated dose 0.1 mg/kg i.v.)	Immobility in % (±S.D.) [1, 6]	Immobility in % (±S.D.) [1, 7]	Normalised DA level in the nucleus accumbens ([4]; Time 0 min (baseline sample))	Normalised DA level in the nucleus accumbens ([4]; Time 20 min)	Normalised DA level in the nucleus accumbens ([4]; Time 40 min)	Normalised DA level in the nucleus accumbens ([4]; Time 60 min)	Normalised DA level in the nucleus accumbens ([4]; Time 80 min)	Normalised DA level in the nucleus accumbens ([4]; Time 100 min)	Normalised DA level in the nucleus accumbens ([4]; Time 120 min)	Normalised DA level in the nucleus accumbens ([4]; Time 140 min)	Normalised DA level in the nucleus accumbens ([4]; Time −20 min (baseline sample))	Normalised DA level in the nucleus accumbens ([4]; Time −40 min (baseline sample))	Effect on the basal extracellular DA level in the nucleus accumbens [4]	inhibition at 2.5 mg/kg [5]	inhibition at 5 mg/kg [5]	other results
CCOC(=O)Nc1ccc(NCc2c(C)cc(C)cc2C)cc1N [[2-Amino-4-(2,4,6-trimethyl-benzylamino)-phenyl]-carbamic acid ethyl ester]																			Inhibition of baseline motility, ED50 (baseline motility): 4.3 mg/kg
Cc1cc2c(s1)Nc1ccccc1N=C2N1CCN(C)CC1 [Olanzapine, reference compound]	95 (11) %																		Immobility in % (±S.D.) ([1]; 0.31 mg/kg): 96 (14) %; ED50 [2]: 0.21 mg/kg
Cc1cc(N2CCOCC2)cc(C)c1NC(=O)CC(C)(C)C	102 (4.6) %	89.8 ± 4.5 (5) percentage of baseline firing rate	81.0 ± 4.0 (5) percentage of baseline firing rate	96.7 (7.5) %	82.3 (20)* %	91 ± 4 % of baseline	112 ± 12 % of baseline	227 ± 46 % of baseline	262 ± 53* % of baseline	195 ± 38* % of baseline	172 ± 24 % of baseline	166 ± 32 % of baseline	129 ± 35 % of baseline	100 ± 3 % of baseline	108 ± 5 % of baseline	None of the latter three compounds significantly affects the basal extracellular DA level	1%	71%	Spontaneous DA cell firing rate in the VTA ([3]; cumulated dose 0.25 mg/kg i.v.): 74.1 ± 6.3 (4) percentage of baseline firing rate; Spontaneous DA cell firing rate in the VTA ([3]; cumulated dose 0.5 mg/kg i.v.): 68.1 ± 6.0 (4) percentage of baseline firing rate; Spontaneous DA cell firing rate in the VTA ([3]; cumulated dose 1.0 mg/kg i.v.): 57.1 ± 7.9 (3) percentage of baseline firing rate
Cc1cc(N2CCOCC2)cc(C)c1NC(=O)CC1CCCC1	97.5 (6.3) %	95.1 ± 1.9 (4) percentage of baseline firing rate	88.2 ± 2.8 (5) percentage of baseline firing rate	97 (6.7) %	81.0 (18)* %	99 ± 4 % of baseline	125 ± 9 % of baseline	264 ± 39 % of baseline	265 ± 17* % of baseline	231 ± 22 % of baseline	167 ± 25 % of baseline	109 ± 11 % of baseline	93 ± 15 % of baseline	106 ± 5 % of baseline	95 ± 6 % of baseline	None of the latter three compounds significantly affects the basal extracellular DA level	5%	65%	Spontaneous DA cell firing rate in the VTA ([3]; cumulated dose 0.3 mg/kg i.v.): 74.6 ± 3.6 (4) percentage of baseline firing rate; Spontaneous DA cell firing rate in the VTA ([3]; cumulated dose 0.6 mg/kg i.v.): 64.1 ± 7.1 (2) percentage of baseline firing rate; Spontaneous DA cell firing rate in the VTA ([3]; cumulated dose 0.9 mg/kg i.v.): 55.8 ± 6.5 (2) percentage of baseline firing rate

Reference: patent US20100256145A1, “USE OF KCNQ POTASSIUM CHANNEL OPENERS FOR REDUCING SYMPTOMS OF OR TREATING DISORDERS OR CONDITIONS WHEREIN THE DOPAMINERGIC SYSTEM IS DISRUPTED” (H. LUNDBECK A/S, priority 2007, published 2010)
